{"source": "patent US11286236B2", "about": "“Compound, agent and composition for the suppression of cancer growth” (Vector Vitale IP LLC, priority 2018, dated 2022)", "type_in_all_cases": "cell-based", "key": {"[1]": {"system": "Mouse melanoma cells (MM-4 cell line)", "test": "Cytotoxic effect on melanoma cells, single agents (crystal violet)", "procedure": "Materials and Methods: Mouse melanoma cells (MM-4 cell line) were seeded into 96-well plates (TPP, Italy) in DMEM (High Glucose w/L-Glutamine w/o Sodium Pyruvate; Biowest, France) supplemented with 10% newborn calf serum (Biowest, France) and […] gentamicin (Sigma, USA) at a seeding density of 5×10^4 cells/ml. The cells were then cultured in an incubator with a humidified atmosphere of 5% CO2 in air at 37° C. 24 hours after the cells were seeded, a compound according to the invention that comprises ^85Rb-enriched rubidium salt of N-benzoyl-N′-(4-toluenesulfonyl)-o-phenylenediamine of formula I was added into the appropriate wells. ^85Rbe-E2 was used at the following doses: 2.0 μg/ml, 1.0 μg/ml, 0.5 μg/ml (each is the final concentration of ^85Rbe after addition to the well). The cytotoxic effect was determined by counting the number of live cells observed after treatment, expressed as a percentage of the number of live cells observed/counted in the control (cells seed in the well and not treated). Control cells were not treated. For each concentration, the experiment was carried out twice. The effects of the drugs were evaluated visually, which allowed us to examine the morphological pattern of the cytotoxic action of the drugs, and by staining the cells with crystal violet, followed by OD measurement at an excitation wavelength of 540 nm using a MultiScan spectrophotometer. For comparison, a parallel experiment was carried out with the use of a known antitumor drug cisplatin and a compound of rubidium salt of N-benzoyl-N′-(4-toluenesulfonyl)-o-phenylenediamine of formula I which comprised a naturally-abundant mixture of isotopes of rubidium instead of being enriched for the ^85Rb isotope."}, "[2]": {"system": "human Keratinocytes (HaCaT line)", "test": "Metabolic activity of human keratinocytes (HaCaT line)", "procedure": "In Vitro Effects of Experimental Compound ^85Rbe-E2 on metabolic activity of human Keratinocytes\n(§1) Proliferative and metabolic activity of cells was determined by the colorimetric method.\n(§2) The metabolic activity of the cells (i.e., the number of living cells) was assessed by MTT staining.\n(§3) 24 hours after the last reagent, the cells were seeded at a concentration of 1×10^4 cells/well in wells of a 96-well plate in complete DMEM nutrient medium with 10% FBS and 40 μg/ml gentamicin. The cells were cultured in a humidified atmosphere at 5% CO2 and 37° C. for 24 hours. After 24 hours, various doses of experimental substances were added to the respective wells. The cells were incubated at 37° C. and 5% CO2 for an additional 72 hours.\n(§4) Upon completion of the incubation with the preparations, the proliferative and metabolic activity of the cells in the experiment was evaluated by the colorimetric method by staining MTT cells:\n(§5) 10 μl of the MTT solution (5 mg/ml of the dye in phosphate-buffered saline) was added to each well of the plate; the plate was incubated in a CO2 incubator at 37° C. for 3 hours. After that, the medium was removed from the wells, and the formed tetraformazan crystals were dissolved in 100 μl of dimethylsulfoxide.\n(§6) When MTT was used, the results were evaluated using a multi-well spectrophotometer at an excitation wavelength of 540 nm. The percentage of viable cells was calculated by the formula: IR=(A540(experiment)/A540(control))×100%."}, "[3]": {"system": "Normal Human Fibroblasts", "test": "Metabolic activity of normal human fibroblasts (MTT assay)", "procedure": "In Vitro Assessment of the Effects of Experimental Compound ^85Rbe-E2 on metabolic Activity of Normal Human Fibroblasts (MTT Assay)\nIn Vitro Assessment of the Effects of E2+^85Rbe on Metabolic Activity of Normal Human Fibroblasts (MTT Assay)\nas §1, §2, §3, §4, §5, §6"}, "[4]": {"system": "Mouse melanoma cells (MM-4 cell line)", "test": "Cytotoxic effect of E2+85Rbe and antitumor drug added 24 hours apart", "procedure": "The effectiveness of the method of the invention that comprises administering antitumor drugs and ^85Rb-enriched rubidium salt of N-benzoyl-N-(4-toluenesulfonyl)-o-phenylenediamine of formula I was measured in the experiment. […] Both orders were tested: AD administered first (Scheme 2, below), and AD administered second (Scheme 1, below).\nMaterials and Methods: Mouse melanoma cells (MM-4 cell line) were seeded into 96-well plates (TPP, Italy), in DMEM (Biowest, France) supplemented with 10% newborn calf serum (Biowest, France) and […] gentamicin (Sigma, USA) at a seeding density of 5×10^4 cells/ml. The cells were then cultured in an incubator with a humidified atmosphere of 5% CO2 in air at 37° C. The experiment was carried out in accordance with the three schemes given below. The experiment was started 24 hours after the cells were seeded. For this purpose, the agents used in the method were introduced into the appropriate wells. The following schemes of introduction were used for the study:\nScheme 1) The ^85Rb-enriched rubidium salt of N-benzoyl-N′-(4-toluenesulfonyl)-o-phenylenediamine of formula I was introduced at the first stage in the following amounts: 2.0 μg/ml, 1.0 μg/ml, 0, 5 μg/ml, and one antitumor drug was introduced at the second stage (after 24 hours).\nScheme 2) An AD was introduced at the first stage at doses as indicated in Scheme 1 above and ^85Rb-enriched rubidium salt of N-benzoyl-N′-(4-toluenesulfonyl)-o-phenylenediamine of formula I was introduced at the second stage (after 24 hours) at the following doses: 2.0 μg/ml, 1.0 μg/ml, 0.5 μg/ml.\nAfter all the agents were added into the wells, the cells were incubated at 37° C. and 5% CO2 for another 72 hours (96 hours in total after the cells were seeded).\nAs in example 2, the cytotoxic effect was determined as the percentage of the cell number with respect to the control after their treatment in accordance with the claimed method. The effects of the drugs were evaluated visually, which allowed us to examine the morphological pattern of the cytotoxic action of the drugs, and by staining the cells with crystal violet, followed by OD measurement at an excitation wavelength of 540 nm using a MultiSkan microplate spectrophotometer.\nThe effects of the complex action of various doses of the investigated substances were evaluated using the concept of synergistic, additive and antagonistic effects of the drugs, as for Example 2, and calculating CI as described in Example 2.\nEach table sets forth the % of MM-4 cells that survived in the presence of the drug doses indicated in the in vitro experiments described above, expressed as a percentage of the cells in the control wells."}}, "note": "Structures can show the parent of a compound that is named as a salt.", "data": [{"smiles": "Cc1ccc(S(=O)(=O)Nc2ccccc2NC(=O)c2ccccc2)cc1", "note": "[^85Rbe − E2, ^85Rb-enriched rubidium salt of N-benzoyl-N′-(4-toluenesulfonyl)-o-phenylenediamine]", "values": [{"measurement": "Number of cells after their treatment with the drug, %", "setting": "[1]; 0.5 μg/ml of rubidium (85Rbe or Rb)", "value": "32.3 ± 0.7", "unit": "%"}, {"measurement": "Number of cells after their treatment with the drug, %", "setting": "[1]; 1.0 μg/ml of rubidium (85Rbe or Rb)", "value": "8.3 ± 0.5", "unit": "%"}, {"measurement": "Number of cells after their treatment with the drug, %", "setting": "[1]; 2.0 μg/ml of rubidium (85Rbe or Rb)", "value": "6.4 ± 0.3", "unit": "%"}, {"measurement": "Metabolic activity of cells, %", "setting": "[2]; 8 ng/ml", "value": "114 ± 7.7", "unit": "%"}, {"measurement": "Metabolic activity of cells, %", "setting": "[2]; 16 ng/ml", "value": "98 ± 4", "unit": "%"}, {"measurement": "Metabolic activity of cells, %", "setting": "[2]; 31 ng/ml", "value": "97.8 ± 3.6", "unit": "%"}, {"measurement": "Metabolic activity of cells, %", "setting": "[2]; 62 ng/ml", "value": "90.7 ± 2.7", "unit": "%"}, {"measurement": "Metabolic activity of cells, %", "setting": "[2]; 0.13 μg/ml", "value": "95.3 ± 10.7", "unit": "%"}, {"measurement": "Metabolic activity of cells, %", "setting": "[2]; 0.25 μg/ml", "value": "100 ± 8.7", "unit": "%"}, {"measurement": "Metabolic activity of cells, %", "setting": "[2]; 0.5 μg/ml", "value": "90 ± 1", "unit": "%"}, {"measurement": "Metabolic activity of cells, %", "setting": "[2]; 1 μg/ml", "value": 0, "unit": "%"}, {"measurement": "Metabolic activity of cells, %", "setting": "[3]; 1.25 μg/ml", "value": "105.1 ± 2.3", "unit": "%"}, {"measurement": "Metabolic activity of cells, %", "setting": "[3]; 2.5 μg/ml", "value": "84.4 ± 4.6", "unit": "%"}, {"measurement": "Metabolic activity of cells, %", "setting": "[3]; 5 μg/ml", "value": "82.3 ± 3^ %"}, {"measurement": "Metabolic activity of cells, %", "setting": "[3]; 10 μg/ml", "value": "82.5 ± 1.3", "unit": "%"}, {"measurement": "Metabolic activity of cells, %", "setting": "[3]; 20 μg/ml", "value": "74 ± 1.3", "unit": "%"}, {"measurement": "Metabolic activity of cells, %", "setting": "[3]; 38 μg/ml", "value": "68.5 ± 1.8", "unit": "%"}, {"measurement": "Metabolic activity of cells, %", "setting": "[3]; 75 μg/ml", "value": "67.4 ± 4.7", "unit": "%"}, {"measurement": "Metabolic activity of cells, %", "setting": "[3]; 150 μg/ml", "value": "72.8 ± 2.1", "unit": "%"}, {"measurement": "% surviving MM-4 cells", "setting": "[4]; E2+85Rbe 0.5 μg/ml alone, first stage", "value": "32.3 ± 0.7", "unit": "%"}, {"measurement": "% surviving MM-4 cells", "setting": "[4]; E2+85Rbe 0.5 μg/ml alone, second stage (24 h later)", "value": "51 ± 1", "unit": "%"}, {"measurement": "% surviving MM-4 cells", "setting": "[4]; E2+85Rbe 1 μg/ml alone, first stage", "value": "8.3 ± 0.5", "unit": "%"}, {"measurement": "% surviving MM-4 cells", "setting": "[4]; E2+85Rbe 1 μg/ml alone, second stage (24 h later)", "value": "19 ± 0.5", "unit": "%"}, {"measurement": "% surviving MM-4 cells", "setting": "[4]; E2+85Rbe 2 μg/ml alone, first stage", "value": "6.4 ± 0.3", "unit": "%"}, {"measurement": "% surviving MM-4 cells", "setting": "[4]; E2+85Rbe 2 μg/ml alone, second stage (24 h later)", "value": "17.7 ± 0.8", "unit": "%"}]}, {"smiles": "N.N.[Cl][Pt][Cl]", "note": "[cisplatin]", "values": [{"measurement": "Number of cells after their treatment with the drug, %", "setting": "[1]; cisplatin 0.5 μg/ml", "value": "84 ± 3.3", "unit": "%"}, {"measurement": "Number of cells after their treatment with the drug, %", "setting": "[1]; cisplatin 1.0 μg/ml", "value": "51.7 ± 6.9", "unit": "%"}, {"measurement": "Number of cells after their treatment with the drug, %", "setting": "[1]; cisplatin 2.5 μg/ml", "value": "24.6 ± 5.2", "unit": "%"}, {"measurement": "Number of cells after their treatment with the drug, %", "setting": "[1]; cisplatin 5 μg/ml", "value": "13.8 ± 1.2", "unit": "%"}, {"measurement": "Number of cells after their treatment with the drug, %", "setting": "[1]; cisplatin 10 μg/ml", "value": "2.6 ± 1.4", "unit": "%"}, {"measurement": "% surviving MM-4 cells", "setting": "[4]; cisplatinum 0.5 μg/ml alone, first stage", "value": "84 ± 3.3", "unit": "%"}, {"measurement": "% surviving MM-4 cells", "setting": "[4]; cisplatinum 0.5 μg/ml alone, second stage", "value": "84.6 ± 3.5", "unit": "%"}, {"measurement": "% surviving MM-4 cells", "setting": "[4]; cisplatinum 1 μg/ml alone, first stage", "value": "51.7 ± 6.9", "unit": "%"}, {"measurement": "% surviving MM-4 cells", "setting": "[4]; cisplatinum 1 μg/ml alone, second stage", "value": "70 ± 3.6", "unit": "%"}, {"measurement": "% surviving MM-4 cells", "setting": "[4]; cisplatinum 2.5 μg/ml alone, first stage", "value": "24.6 ± 5.2", "unit": "%"}, {"measurement": "% surviving MM-4 cells", "setting": "[4]; cisplatinum 2.5 μg/ml alone, second stage", "value": "34 ± 2.6", "unit": "%"}, {"measurement": "% surviving MM-4 cells", "setting": "[4]; cisplatinum 5 μg/ml alone, first stage", "value": "13.8 ± 1.2", "unit": "%"}, {"measurement": "% surviving MM-4 cells", "setting": "[4]; cisplatinum 5 μg/ml alone, second stage", "value": "35.2 ± 3.3", "unit": "%"}, {"measurement": "% surviving MM-4 cells", "setting": "[4]; cisplatinum 10 μg/ml alone, first stage", "value": "2.6 ± 1.4", "unit": "%"}, {"measurement": "% surviving MM-4 cells", "setting": "[4]; cisplatinum 10 μg/ml alone, second stage", "value": "19.4 ± 0.9", "unit": "%"}]}]}
